For 17 compounds, IC50 results are on record in ChEMBL document CHEMBL5729193, “Aromatic vinyl or aromatic ethyl derivative, preparation method therefor, intermediate, pharmaceutical composition, and application” (2022).

The IC50 is the concentration that gives 50% inhibition. A lower IC50 goes with greater potency in that assay.

Each structure is given as a SMILES string.

In this assay the target is Programmed cell death protein 1/Programmed cell death 1 ligand 1 (Homo sapiens, UniProt Q15116+Q9NZQ7). The assay can be described thus: Homogenouse Time-Resolved Fluorescence (HTRF) Binding Assay: Experimental Procedure1. The compound was formulated to 10 concentrations with a three-fold concentration gradient with 100% DMSO.2. The solution of the compound in DMSO was added to Dilute Buffer, and mixed evenly and then transferred to a 96-well plate.3. PD-L1 was diluted with Dilute Buffer and added to the 96-well plate above.4. PD-1 was diluted with Dilute Buffer, then added to the 96-well plate above and incubated at room temperature for 30 minutes.5. One portion of anti-tag1-Eu and one portion of anti-tag2-XL665 were added to Detection Buffer, mixed evenly and transferred to the 96-well plate above.6. The mixed solution in the 96-well plate were incubated at room temperature for 1 to 24 hours.7. HTRF values were read by Envision. It is filed as protein-complex assay.
Chain of Programmed cell death protein 1/Programmed cell death 1 ligand 1 (Q15116 whole entry): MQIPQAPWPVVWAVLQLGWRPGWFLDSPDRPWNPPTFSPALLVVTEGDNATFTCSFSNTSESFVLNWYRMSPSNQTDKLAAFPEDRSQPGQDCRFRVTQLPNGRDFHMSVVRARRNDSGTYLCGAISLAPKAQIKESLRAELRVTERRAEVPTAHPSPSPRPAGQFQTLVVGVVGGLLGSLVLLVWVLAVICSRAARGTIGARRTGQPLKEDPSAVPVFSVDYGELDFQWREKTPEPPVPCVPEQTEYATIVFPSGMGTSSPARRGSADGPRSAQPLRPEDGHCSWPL
Chain of Programmed cell death protein 1/Programmed cell death 1 ligand 1 (Q9NZQ7 whole entry): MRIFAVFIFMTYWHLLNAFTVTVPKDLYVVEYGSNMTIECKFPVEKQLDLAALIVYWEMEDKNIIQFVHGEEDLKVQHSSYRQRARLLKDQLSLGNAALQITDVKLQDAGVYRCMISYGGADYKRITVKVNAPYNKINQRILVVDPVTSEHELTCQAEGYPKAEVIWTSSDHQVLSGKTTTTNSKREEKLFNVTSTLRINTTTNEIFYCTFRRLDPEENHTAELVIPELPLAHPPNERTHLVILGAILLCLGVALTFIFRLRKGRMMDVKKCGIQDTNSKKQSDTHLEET

Consider `Cc1c(/C=C/c2cc(CN[C@@](C)(CO)C(=O)O)ccc2C(F)(F)F)cccc1-c1cnccn1`, for which the IC50 was 540 nM.

In turn, `Cc1c(/C=C/c2cc(CN[C@@](C)(CO)C(=O)O)ccc2C(F)(F)F)cccc1-c1cccnc1` displayed an IC50 of 580 nM.

With `Cc1c(/C=C/c2cc(CNC(CO)C(=O)O)ccc2C(F)(F)F)cccc1-c1ccc2c(c1)OCCO2` (configuration not stated), the IC50 was 14 nM.

In turn, `Cc1ccc(CNC(C)(CO)C(=O)O)cc1/C=C/c1cccc(-c2ccc(F)cc2)c1C` (configuration not stated) yielded an IC50 of 1400 nM.

As for `Cc1ccc(CNC(C)(CO)C(=O)O)cc1/C=C/c1cccc(-c2cccc(F)c2)c1C` (configuration not stated), the IC50 came to 57 nM.

Consider `Cc1c(/C=C/c2cc(CN[C@@](C)(CO)C(=O)O)ccc2C(F)(F)F)cccc1-c1ccc2cn(C)nc2c1`, for which the IC50 is 880 nM.

Regarding `Cc1c(CCc2cc(CNC(C)C(=O)O)ccc2C(F)(F)F)cccc1-c1ccccc1` (configuration not stated), the IC50 amounted to 44 nM.

`Cc1c(/C=C/c2cc(CN[C@@](C)(CO)C(=O)O)ccc2C(F)(F)F)cccc1-c1ccc2ncoc2c1` came in with an IC50 of 1100 nM.

On to `Cc1c(/C=C/c2cc(CN[C@@](C)(CO)C(=O)O)ccc2C(F)(F)F)cccc1-c1ccccn1`, for which the IC50 came out at 2200 nM.

For `Cc1c(CCc2cc(CNC(C)(CO)C(=O)O)ccc2C(F)(F)F)cccc1-c1ccccc1` (configuration not stated), the IC50 was 85 nM.

Regarding `Cc1c(/C=C/c2cc(CNC(C)(CO)C(=O)O)ccc2C(F)(F)F)cccc1-c1cccc(F)c1` (configuration not stated), the IC50 came to 46 nM.

In turn, `Cc1c(CCc2cc(CNC(CO)C(=O)O)ccc2C(F)(F)F)cccc1-c1ccccc1` (configuration not stated) displayed an IC50 of 46 nM.

Regarding `Cc1c(/C=C/c2cc(CNC(C)(CO)C(=O)O)ccc2C(F)(F)F)cccc1-c1ccc(F)cc1` (configuration not stated), the IC50 was 320 nM.

In turn, `Cc1c(/C=C/c2cc(CNC(C)(CO)C(=O)O)ccc2C(F)(F)F)cccc1-c1ccccc1F` (configuration not stated) yielded an IC50 of 20 nM.

Consider `COc1ccc(-c2cccc(/C=C/c3cc(CNC(C)(CO)C(=O)O)ccc3C)c2C)cc1` (configuration not stated), for which the concentration for half-maximal inhibition (IC50) stood at 3100 nM.

As to `Cc1c(/C=C/c2cc(CNC(CO)C(=O)O)ccc2C(F)(F)F)cccc1-c1ccccc1F` (configuration not stated), the IC50 came out at 13 nM.

As for `Cc1c(/C=C/c2cc(C(C)NCC(=O)O)ccc2C(F)(F)F)cccc1-c1ccccc1` (configuration not stated), the IC50 came out at 24 nM.
